The values below come from PMC7822874, “Chemoprotective antimalarials identified through quantitative high-throughput screening of Plasmodium blood and liver stage parasites” (Scientific Reports, 2021).

Series [1] deals with HepG2-A16-CD81EGFP cells. To be noted: average of 2 wells; for HepG2 1uM growth rep1 / HepG2 1uM growth rep2: HepG2, 1 µM compound treatment (10 mM stocks); for HepG2 1uM growth rep1 / HepG2 3uM growth rep1: replicate 1, normalized; for HepG2 1uM growth rep2 / HepG2 3uM growth rep2: replicate 2, normalized; for HepG2 3uM growth rep1 / HepG2 3uM growth rep2: HepG2, 3 µM compound treatment (10 mM stocks).

The subject of series [2] is P. berghei-ANKA-GFP-LucCON liver stage parasites in HepG2-A16-CD81EGFP cells. The series is described as follows: P. berghei liver stage Pb-Luc assay, Method 1 (UCSD, 1536-well). The series is classed as cell-based, Plasmodium berghei. Particulars: for PbLuc 1uM growth rep1 / PbLuc 1uM growth rep2 / PbLuc 3uM growth rep1 / PbLuc 3uM growth rep2: P. berghei liver stage; for PbLuc 1uM growth rep1 / PbLuc 1uM growth rep2: 1 µM compound treatment (10 mM stocks); for PbLuc 1uM growth rep1 / PbLuc 3uM growth rep1: replicate 1, normalized; for PbLuc 1uM growth rep1 / PbLuc 1uM growth rep2 / PbLuc 3uM growth rep1 / PbLuc 3uM growth rep2 / activity at 1 µM / activity at 3 µM: average of 2 wells on a 1536 well plate; for PbLuc 1uM growth rep2 / PbLuc 3uM growth rep2: replicate 2, normalized; for PbLuc 3uM growth rep1 / PbLuc 3uM growth rep2: 3 µM compound treatment (10 mM stocks); for Max Resp (signal direction of the dose response): Decrease = decreasing P. berghei viability with dose, Increase = increasing signal, Inactive = no dose response; for activity at 1 µM / activity at 3 µM: 48 h; for activity at 1 µM: 1 uM (compounds provided at 10 mM); for activity at 3 µM: 3 uM (compounds provided at 10 mM).

Series [3] can be described thus: in vitro. Particulars: human, HepG2-A16-CD81EGFP cells, uninfected.
Series [4] concerns Plasmodium falciparum Dd2 asexual blood stage parasites. The series is described as follows: microbe, parasite or virus in culture. To be noted: Plasmodium falciparum, DD2, Erythrocyte, 72 h; read-out: AC50. Also noted: species or system Plasmodium falciparum Dd2 in human erythrocytes; single determination (one 11-point concentration-response curve).
Setting [5] is: Plasmodium berghei, Method 1, Hill fit, 50% of maximum activity response, read-out: AC50.
[6] abbreviates: Plasmodium berghei, Method 1, log10 of molar AC50 from Hill fit, read-out: Log AC50 (converted).
Where [7] appears, read: Plasmodium berghei, column 11, read-out: Pb-Luc (P. berghei liver stage), % of control, lower concentration, first repeat.
[8] abbreviates: Plasmodium berghei, column 12, read-out: Pb-Luc (P. berghei liver stage), % of control, lower concentration, second repeat.
[9] abbreviates: Plasmodium berghei, column 8, read-out: Pb-Luc (P. berghei liver stage), % of control, higher concentration, first repeat.
The mark [10] stands for this setting: Plasmodium berghei, column 9, read-out: Pb-Luc (P. berghei liver stage), % of control, higher concentration, second repeat.

Structures are written as SMILES. Like-named read-outs stand apart in the source and are kept apart here.

`Cc1ccc(NC2=C/C(=N/S(=O)(=O)c3cccs3)c3ccccc3C2=O)cc1C` [MLS000585841-01]: in series [1], the “HepG2 1uM growth rep1” value is given as 102%, the “HepG2 1uM growth rep2” value was found to be 96%, the “HepG2 3uM growth rep1” value is 77% and the “HepG2 3uM growth rep2” value came to 86%. For the same molecule, in series [2], the “PbLuc 1uM growth rep1” value was 82%, the “PbLuc 1uM growth rep2” value is 86%, the “PbLuc 3uM growth rep1” value was 57% and the “PbLuc 3uM growth rep2” value came out at 72%.
For the molecule `O=C1N(c2ccccc2C(F)(F)F)OC1(Cc1ccccc1)c1ccccc1` (stereo not drawn) [MLS002206595-01], in series [1], the “HepG2 1uM growth rep1” value came out at 104%, the “HepG2 1uM growth rep2” value stood at 93%, the “HepG2 3uM growth rep1” value turned out to be 82% and the “HepG2 3uM growth rep2” value came to 88%. In addition, in series [2], the “PbLuc 1uM growth rep1” value was determined as 103%, the “PbLuc 1uM growth rep2” value was found to be 105%, the “PbLuc 3uM growth rep1” value is 93% and the “PbLuc 3uM growth rep2” value was determined as 118%.
On to `COc1ccccc1[C@@]1(C)ON(c2ccccc2C(F)(F)F)C1=O` [MLS002206613-01], for which, in series [1], the “HepG2 1uM growth rep1” value is 103%, the “HepG2 1uM growth rep2” value was found to be 96%, the “HepG2 3uM growth rep1” value is 83% and the “HepG2 3uM growth rep2” value is 94%. In series [2], the “PbLuc 1uM growth rep1” value was 129%, the “PbLuc 1uM growth rep2” value is 87%, the “PbLuc 3uM growth rep1” value is on record as 95% and the “PbLuc 3uM growth rep2” value is listed as 109%.
Regarding `OCCNc1nc(Nc2ccc(Br)cc2)nc2ccccc12` [MLS000625070-01], in series [3], the viability at 66 h was 97%. Moreover, the “Max Resp (signal direction of the dose response)” value (shortened to “Max Resp”) in series [2] (Method 1) is recorded as “Decrease”. Also, the AC50 in series [2] (Method 1, Hill fit, 50% of maximum activity response, read-out: AC50) was 2240 nM; in series [2] (setting [5]), 1410 nM; in series [2] (setting [6]) it was 1410 nM; in series [4], 2660 nM. Also, the “Log AC50 (M)” value in series [2] (Method 1, log10 of molar AC50 from Hill fit) is given as -5.650 M.
On to `CCCc1ccc(OCc2nc(-c3ccc(NC(=O)c4cccs4)cc3)no2)cc1` [MLS000584893-01], for which the viability at 48 h in series [3] was found to be 97.2%. For the same molecule, the viability at 48 h, 1 µM in series [3] worked out at 97.2%. The “Max Resp” value in series [2] (Method 1) is reported as “Decrease”. In addition, the concentration at half-maximal activity (AC50) was 1410 nM in series [2] (setting [5]), 1410 nM in series [2] (setting [6]) and 15000 nM in series [4].
With `COc1cc(C#Cc2c(-c3cncn3C)n(C)c3ccc(-c4ccc5[nH]ccc5c4)cc23)cc(OC)c1` [MLS002391601-01], the viability at 48 h, 1 µM in series [3] was found to be 105%. Also, the viability at 48 h, 3 µM in series [3] is 102%. The activity at 1 µM in series [2] (setting [7]) is 112%; in series [2] (setting [8]), 94%. In addition, the activity at 3 µM in series [2] (setting [9]) was 111%; in series [2] (setting [10]) it was 101%. Besides, the AC50 in series [4] turned out to be 2370 nM.
`COCC(C)n1c(C)cc(C(=O)CSc2nnc(Nc3ccccc3F)s2)c1C` (stereo not drawn) [MLS000566129-01]: in series [3], the viability at 48 h, 1 µM was 95%. In addition, the viability at 48 h, 3 µM in series [3] came to 101%. For the same molecule, the activity at 1 µM is 126% in series [2] (setting [7]) and 124% in series [2] (setting [8]). Also, the values for the activity at 3 µM in series [2] (setting [9]) and in series [2] (setting [10]) were 118% and 120%, respectively. Besides, the half-maximal activity concentration (AC50) in series [4] worked out at 2990 nM.
For the molecule `CCNc1nc(OC)nc(Oc2ccc(=O)n(-c3ccccc3)n2)n1` [MLS000034902-01], in series [3], the viability at 48 h, 1 µM amounted to 112%. Also, the viability at 48 h, 3 µM in series [3] is 101%. The figures for the activity at 1 µM in series [2] (setting [7]) and in series [2] (setting [8]) were 118% and 109%, respectively. The activity at 3 µM was 117% in series [2] (setting [9]) and 126% in series [2] (setting [10]). Also, the AC50 in series [4] stood at 5960 nM.
Regarding `COc1cc(O)c(C(CCN2CCN(c3ccccc3)CC2)c2cc(OC)c(OC)c(OC)c2)c(OC)c1` (stereo not drawn) [MLS000879517-01], in series [3], the viability at 48 h, 1 µM is 96%. Moreover, the viability at 48 h, 3 µM in series [3] is 102%. Also, the activity at 1 µM came out at 87% in series [2] (setting [7]) and 82% in series [2] (setting [8]). Also, the activity at 3 µM in series [2] (setting [9]) amounted to 84%; in series [2] (setting [10]), 91%. Moreover, in series [4], the AC50 is 1330 nM.
Take `CCCOc1ccc(CCc2nnc(S)n2Cc2ccccc2)cc1` [MLS000562311-01]: the viability at 48 h, 1 µM in series [3] was determined as 122%. Also, the viability at 48 h, 3 µM in series [3] was found to be 100%. Also, the activity at 1 µM in series [2] (setting [7]) was 157%; in series [2] (setting [8]), 149%. Besides, the activity at 3 µM in series [2] (setting [9]) stood at 161%; in series [2] (setting [10]), 162%. Further, in series [4], the AC50 was 5310 nM.
As to `Cc1ccc(/C=N/Nc2cc(C)nc(NCc3ccccc3)n2)cc1` [MLS000769291-01], in series [3], the viability at 48 h, 1 µM was 98%. The viability at 48 h, 3 µM in series [3] came to 95%. In addition, the activity at 1 µM in series [2] (setting [7]) came to 97%; in series [2] (setting [8]) it was 106%. Further, the activity at 3 µM came out at 138% in series [2] (setting [9]) and 126% in series [2] (setting [10]). Besides, the AC50 in series [4] worked out at 5310 nM.
For the molecule `COc1cc(Cl)c(C)cc1NC(C)C(=O)Nc1cc(C(F)(F)F)ccc1N1CCOCC1` (stereo not drawn) [MLS000375301-01], the viability at 48 h, 1 µM in series [3] stood at 109%. The viability at 48 h, 3 µM in series [3] was 94%. Moreover, the activity at 1 µM was found to be 124% in series [2] (setting [7]) and 129% in series [2] (setting [8]). Also, the activity at 3 µM in series [2] (setting [9]) and in series [2] (setting [10]) was 103% in each case. Also, the concentration at half-maximal activity (AC50) in series [4] came out at 422 nM.
With `CC(C)(C)OC(=O)N1CCC(CC2CC(c3ccccc3)=NO2)(C(=O)NCc2ccccc2)CC1` (stereo not drawn) [MLS002174287-01], the viability at 48 h, 1 µM in series [3] is 111%. The viability at 48 h, 3 µM in series [3] was 95%. Besides, the results for the activity at 1 µM in series [2] (setting [7]) and in series [2] (setting [8]) were 140% and 108%, respectively. Moreover, the results for the activity at 3 µM in series [2] (setting [9]) and in series [2] (setting [10]) were 65% and 115%, respectively. Besides, the AC50 in series [4] was 2660 nM.
`CCCCCNc1nc2sc3c(c2c(=O)n1-c1cccc(Cl)c1)CCN(C)C3` [MLS000762913-01]: the viability at 48 h, 1 µM in series [3] turned out to be 92%. In addition, the viability at 48 h, 3 µM in series [3] was 105%. Besides, the activity at 1 µM was 99% in series [2] (setting [7]) and 101% in series [2] (setting [8]). Moreover, the activity at 3 µM came out at 72% in series [2] (setting [9]) and 91% in series [2] (setting [10]). For the same molecule, in series [4], the AC50 came to 7500 nM.
Take `C=C(C)COc1ccc(-c2n[nH]cc2-c2ccc(OC)c(OC)c2)c(O)c1` [MLS000084580-01]: in series [3], the viability at 66 h amounted to 36%. In addition, the “Max Resp” value in series [2] (Method 1) was “Decrease”. Moreover, the AC50 in series [2] (setting [5]) is 501 nM; in series [2] (setting [6]), 501 nM; in series [4], 6680 nM.
`C=C(C)COc1ccc(-c2ncnc(C(F)(F)F)c2-c2ccc(OC)cc2)c(O)c1` [MLS001216205-01]: in series [3], the viability at 48 h, 1 µM amounted to 89%. The viability at 48 h, 3 µM in series [3] was determined as 104%. The activity at 1 µM was determined as 120% in series [2] (setting [7]) and 94% in series [2] (setting [8]). The activity at 3 µM in series [2] (setting [9]) came to 111%; in series [2] (setting [10]) it was 99%. In series [4], the AC50 was 2990 nM.
With `CC(C)(C)N1C(=O)c2ccc(C(=O)Nc3ccc(-c4nc5ccccc5[nH]4)cc3)cc2C1=O` [MLS000567491-01], the viability at 48 h, 1 µM in series [3] stood at 94%. Moreover, the viability at 48 h, 3 µM in series [3] was determined as 108%. The activity at 1 µM in series [2] (setting [7]) is 114%; in series [2] (setting [8]), 117%. For the same molecule, the activity at 3 µM in series [2] (setting [9]) was 141%; in series [2] (setting [10]) it was 128%. For the same molecule, the AC50 in series [4] came out at 6680 nM.
In the case of `CC1=C(CC(=O)c2ccc(Cl)cc2)C(=O)c2ccccc2C1=O` [MLS000543314-01], the viability at 48 h, 1 µM in series [3] was 105%. In addition, the viability at 48 h, 3 µM in series [3] was determined as 100%. For the same molecule, the activity at 1 µM is 78% in series [2] (setting [7]) and 79% in series [2] (setting [8]). Also, the activity at 3 µM was found to be 77% in series [2] (setting [9]) and 70% in series [2] (setting [10]). Further, the concentration at half-maximal activity (AC50) in series [4] amounted to 211 nM.

One may read the viability as a read-out of living cells in per cent, often relative to untreated cells. What is called AC50 is the concentration giving half of the maximal activity seen.
